Active and inactive are the calls of the source. The calls are words filed in the database; no cut-off is given here.
System: RAW264.7
Assay: Antiinflammatory activity against mouse RAW264.7 cells assessed as inhibition of LPS-induced NO production preincubated for 3 hrs followed by LPS-stimulation and measured after 24 hrs by Griess reagent based assay
Format: functional, cell-based

| Compound | Activity |
| --- | --- |
| NC(=O)c1coc(Cc2ccccc2)cc1=O | inactive |
| O=C(O)c1ccc(CO)o1 | inactive |
